Earlier results in article PMC9851200, “Multiparameter phenotypic screening for endogenous TFEB and TFE3 translocation identifies novel chemical series modulating lysosome function” (Autophagy, 2022).

Assays:
Parameters in all cases: method as in original PKIS2 published data
[1] = target: kinases (KINOMEscan panel) (Homo sapiens, UniProt P07949); conditions: kinase RET; Published KINOMEscan; ref original PKIS2 published data; cited from earlier work
[2] = target: T1, kinases (KINOMEscan panel) (Homo sapiens, UniProt P42681); conditions: kinase TXK; Published KINOMEscan; ref original PKIS2 published data; cited from earlier work
T1 sequence (P42681 1-527): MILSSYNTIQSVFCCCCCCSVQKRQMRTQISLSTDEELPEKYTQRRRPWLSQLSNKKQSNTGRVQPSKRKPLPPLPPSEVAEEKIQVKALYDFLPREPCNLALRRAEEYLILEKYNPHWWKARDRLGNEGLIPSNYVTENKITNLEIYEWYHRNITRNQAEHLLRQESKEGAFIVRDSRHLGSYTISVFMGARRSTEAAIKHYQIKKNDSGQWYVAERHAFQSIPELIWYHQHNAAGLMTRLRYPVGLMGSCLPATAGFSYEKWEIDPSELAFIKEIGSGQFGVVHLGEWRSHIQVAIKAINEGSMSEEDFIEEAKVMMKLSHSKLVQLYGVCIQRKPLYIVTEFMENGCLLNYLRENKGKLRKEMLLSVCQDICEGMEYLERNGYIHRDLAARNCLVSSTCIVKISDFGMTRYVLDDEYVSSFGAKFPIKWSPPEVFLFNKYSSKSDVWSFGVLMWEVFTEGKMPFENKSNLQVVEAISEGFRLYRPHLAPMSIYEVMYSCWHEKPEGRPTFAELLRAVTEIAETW

[3] = target: kinases (KINOMEscan panel) (Homo sapiens, UniProt P49841); conditions: Published KINOMEscan; ref original PKIS2 published data; cited from earlier work
Sequence of kinases (KINOMEscan panel) (Homo sapiens, UniProt P49841) (P49841 whole entry): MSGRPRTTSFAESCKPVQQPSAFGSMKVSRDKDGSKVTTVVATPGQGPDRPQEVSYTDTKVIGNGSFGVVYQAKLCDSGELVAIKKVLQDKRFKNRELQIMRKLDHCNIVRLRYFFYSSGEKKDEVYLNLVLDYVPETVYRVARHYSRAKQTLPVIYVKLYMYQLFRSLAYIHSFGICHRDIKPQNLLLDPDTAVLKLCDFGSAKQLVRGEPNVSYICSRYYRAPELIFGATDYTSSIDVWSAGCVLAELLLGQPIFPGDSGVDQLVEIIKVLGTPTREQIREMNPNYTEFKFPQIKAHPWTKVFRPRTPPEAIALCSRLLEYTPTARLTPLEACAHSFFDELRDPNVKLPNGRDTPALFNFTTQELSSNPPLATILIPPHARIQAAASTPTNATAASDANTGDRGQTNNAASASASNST

[4] = target: T2, kinases (KINOMEscan panel) (Homo sapiens, UniProt P51956); conditions: kinase NEK3; Published KINOMEscan; ref original PKIS2 published data; cited from earlier work
T2 sequence (P51956 1-506): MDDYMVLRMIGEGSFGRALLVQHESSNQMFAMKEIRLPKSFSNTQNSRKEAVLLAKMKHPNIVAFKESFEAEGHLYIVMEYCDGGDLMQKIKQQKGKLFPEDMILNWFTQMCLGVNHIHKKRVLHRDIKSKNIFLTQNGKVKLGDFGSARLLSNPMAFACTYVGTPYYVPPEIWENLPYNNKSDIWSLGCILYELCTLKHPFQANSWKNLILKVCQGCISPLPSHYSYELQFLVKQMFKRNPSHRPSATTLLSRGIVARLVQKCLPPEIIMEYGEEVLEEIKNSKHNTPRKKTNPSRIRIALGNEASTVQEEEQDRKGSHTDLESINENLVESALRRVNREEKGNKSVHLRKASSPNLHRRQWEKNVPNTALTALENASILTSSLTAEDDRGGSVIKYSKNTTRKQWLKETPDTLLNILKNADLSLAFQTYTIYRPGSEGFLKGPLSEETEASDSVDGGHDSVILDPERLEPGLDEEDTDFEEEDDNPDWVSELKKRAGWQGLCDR

[5] = target: kinases (KINOMEscan panel) (Homo sapiens, UniProt Q14680); conditions: kinase MELK; Published KINOMEscan; ref original PKIS2 published data; cited from earlier work
Sequence of kinases (KINOMEscan panel) (Homo sapiens, UniProt Q14680) (Q14680 whole entry): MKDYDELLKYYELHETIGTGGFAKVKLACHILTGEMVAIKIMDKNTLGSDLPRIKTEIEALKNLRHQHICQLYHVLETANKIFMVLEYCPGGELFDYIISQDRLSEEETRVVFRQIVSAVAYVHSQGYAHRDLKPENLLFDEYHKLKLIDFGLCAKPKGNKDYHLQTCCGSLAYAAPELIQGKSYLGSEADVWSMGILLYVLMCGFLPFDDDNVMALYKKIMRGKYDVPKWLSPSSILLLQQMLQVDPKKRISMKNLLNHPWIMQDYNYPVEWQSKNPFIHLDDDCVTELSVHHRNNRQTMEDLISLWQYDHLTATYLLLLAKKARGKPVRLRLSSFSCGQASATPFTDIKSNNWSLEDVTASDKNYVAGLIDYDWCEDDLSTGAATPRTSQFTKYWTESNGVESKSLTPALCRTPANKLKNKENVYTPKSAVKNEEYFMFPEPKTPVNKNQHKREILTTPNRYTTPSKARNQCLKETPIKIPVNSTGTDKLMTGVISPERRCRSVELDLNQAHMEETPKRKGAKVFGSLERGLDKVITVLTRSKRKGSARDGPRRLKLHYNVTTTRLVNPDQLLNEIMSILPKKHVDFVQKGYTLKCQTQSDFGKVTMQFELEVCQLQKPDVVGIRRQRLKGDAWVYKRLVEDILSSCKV

[6] = target: kinases (KINOMEscan panel) (Homo sapiens, UniProt Q15569); conditions: TESK1; Published KINOMEscan; ref original PKIS2 published data; cited from earlier work
Sequence of kinases (KINOMEscan panel) (Homo sapiens, UniProt Q15569) (Q15569 whole entry): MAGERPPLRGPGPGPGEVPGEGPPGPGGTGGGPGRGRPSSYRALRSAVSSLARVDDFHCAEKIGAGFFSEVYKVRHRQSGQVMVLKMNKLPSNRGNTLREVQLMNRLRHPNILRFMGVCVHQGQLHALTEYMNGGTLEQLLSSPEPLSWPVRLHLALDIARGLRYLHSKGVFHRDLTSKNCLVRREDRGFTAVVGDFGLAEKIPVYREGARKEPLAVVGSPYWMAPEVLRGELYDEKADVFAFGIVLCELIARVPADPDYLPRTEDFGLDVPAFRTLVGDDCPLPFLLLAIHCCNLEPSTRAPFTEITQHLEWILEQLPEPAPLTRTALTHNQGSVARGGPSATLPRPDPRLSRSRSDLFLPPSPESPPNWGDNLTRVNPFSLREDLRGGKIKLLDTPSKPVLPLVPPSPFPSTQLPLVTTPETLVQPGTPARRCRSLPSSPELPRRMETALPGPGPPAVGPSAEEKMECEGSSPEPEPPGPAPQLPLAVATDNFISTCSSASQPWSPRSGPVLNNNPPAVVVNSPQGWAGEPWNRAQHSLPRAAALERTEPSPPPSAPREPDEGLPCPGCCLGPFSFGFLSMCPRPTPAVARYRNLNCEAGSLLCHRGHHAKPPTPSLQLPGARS

[7] = target: T3, kinases (KINOMEscan panel) (Homo sapiens, UniProt Q8NG66); conditions: Published KINOMEscan; ref original PKIS2 published data; cited from earlier work
T3 sequence (Q8NG66 1-645): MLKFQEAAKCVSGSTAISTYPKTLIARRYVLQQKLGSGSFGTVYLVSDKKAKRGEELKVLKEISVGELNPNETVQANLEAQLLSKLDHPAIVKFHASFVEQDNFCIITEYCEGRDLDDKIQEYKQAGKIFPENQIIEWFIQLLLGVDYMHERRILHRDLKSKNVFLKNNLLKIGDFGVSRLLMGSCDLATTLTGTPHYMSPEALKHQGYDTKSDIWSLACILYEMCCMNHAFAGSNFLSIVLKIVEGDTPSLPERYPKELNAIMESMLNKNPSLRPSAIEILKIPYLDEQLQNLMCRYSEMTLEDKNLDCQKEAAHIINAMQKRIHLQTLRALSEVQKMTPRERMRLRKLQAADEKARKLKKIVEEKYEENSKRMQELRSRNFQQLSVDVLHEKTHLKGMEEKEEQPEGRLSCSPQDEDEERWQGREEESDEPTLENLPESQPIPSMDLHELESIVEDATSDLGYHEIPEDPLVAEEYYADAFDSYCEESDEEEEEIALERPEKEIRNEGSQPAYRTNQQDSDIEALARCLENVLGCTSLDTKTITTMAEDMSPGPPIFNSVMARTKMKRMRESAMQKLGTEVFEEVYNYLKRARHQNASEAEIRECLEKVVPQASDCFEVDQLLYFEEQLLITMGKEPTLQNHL

[8] = target: T4, kinases (KINOMEscan panel) (Homo sapiens, UniProt Q92772); conditions: CDKL2; Published KINOMEscan; ref original PKIS2 published data; cited from earlier work
T4 sequence (Q92772 1-493): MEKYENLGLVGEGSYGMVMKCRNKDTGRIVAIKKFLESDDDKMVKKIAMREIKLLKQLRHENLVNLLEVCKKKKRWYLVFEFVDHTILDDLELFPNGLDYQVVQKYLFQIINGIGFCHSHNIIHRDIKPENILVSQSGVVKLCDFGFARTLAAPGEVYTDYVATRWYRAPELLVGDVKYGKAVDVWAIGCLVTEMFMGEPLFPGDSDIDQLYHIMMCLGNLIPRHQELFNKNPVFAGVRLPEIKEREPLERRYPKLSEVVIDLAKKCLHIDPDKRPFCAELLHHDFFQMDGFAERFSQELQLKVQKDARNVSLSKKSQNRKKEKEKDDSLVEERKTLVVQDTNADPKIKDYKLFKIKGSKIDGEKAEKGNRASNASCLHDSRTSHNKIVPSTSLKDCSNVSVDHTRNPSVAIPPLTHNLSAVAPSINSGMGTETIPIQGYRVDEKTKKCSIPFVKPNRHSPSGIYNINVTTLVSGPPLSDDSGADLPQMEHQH

[9] = target: kinases (KINOMEscan panel) (Homo sapiens, UniProt Q9NYY3); conditions: PLK2; Published KINOMEscan; ref original PKIS2 published data; cited from earlier work
Sequence of kinases (KINOMEscan panel) (Homo sapiens, UniProt Q9NYY3) (Q9NYY3 whole entry): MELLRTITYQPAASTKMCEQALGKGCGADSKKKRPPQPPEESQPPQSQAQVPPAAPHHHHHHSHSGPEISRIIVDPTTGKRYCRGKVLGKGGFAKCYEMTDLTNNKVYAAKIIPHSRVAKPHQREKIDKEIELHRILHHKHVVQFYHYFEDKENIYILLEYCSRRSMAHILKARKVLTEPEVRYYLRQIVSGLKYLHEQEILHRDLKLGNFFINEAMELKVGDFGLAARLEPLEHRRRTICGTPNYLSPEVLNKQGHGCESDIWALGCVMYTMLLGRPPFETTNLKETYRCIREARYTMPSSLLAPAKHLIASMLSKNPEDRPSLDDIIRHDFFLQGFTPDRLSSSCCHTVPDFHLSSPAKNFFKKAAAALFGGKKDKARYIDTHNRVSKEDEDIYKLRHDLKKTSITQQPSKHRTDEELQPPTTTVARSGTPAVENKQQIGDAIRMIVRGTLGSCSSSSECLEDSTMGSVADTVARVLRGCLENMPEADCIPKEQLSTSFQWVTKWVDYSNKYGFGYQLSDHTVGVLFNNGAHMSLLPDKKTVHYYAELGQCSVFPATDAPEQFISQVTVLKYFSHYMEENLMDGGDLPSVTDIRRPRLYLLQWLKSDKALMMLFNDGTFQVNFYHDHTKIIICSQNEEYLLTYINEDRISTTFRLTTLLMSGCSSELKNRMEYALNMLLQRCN

Sequence of kinases (KINOMEscan panel) (Homo sapiens, UniProt P07949) (P07949 29-1114): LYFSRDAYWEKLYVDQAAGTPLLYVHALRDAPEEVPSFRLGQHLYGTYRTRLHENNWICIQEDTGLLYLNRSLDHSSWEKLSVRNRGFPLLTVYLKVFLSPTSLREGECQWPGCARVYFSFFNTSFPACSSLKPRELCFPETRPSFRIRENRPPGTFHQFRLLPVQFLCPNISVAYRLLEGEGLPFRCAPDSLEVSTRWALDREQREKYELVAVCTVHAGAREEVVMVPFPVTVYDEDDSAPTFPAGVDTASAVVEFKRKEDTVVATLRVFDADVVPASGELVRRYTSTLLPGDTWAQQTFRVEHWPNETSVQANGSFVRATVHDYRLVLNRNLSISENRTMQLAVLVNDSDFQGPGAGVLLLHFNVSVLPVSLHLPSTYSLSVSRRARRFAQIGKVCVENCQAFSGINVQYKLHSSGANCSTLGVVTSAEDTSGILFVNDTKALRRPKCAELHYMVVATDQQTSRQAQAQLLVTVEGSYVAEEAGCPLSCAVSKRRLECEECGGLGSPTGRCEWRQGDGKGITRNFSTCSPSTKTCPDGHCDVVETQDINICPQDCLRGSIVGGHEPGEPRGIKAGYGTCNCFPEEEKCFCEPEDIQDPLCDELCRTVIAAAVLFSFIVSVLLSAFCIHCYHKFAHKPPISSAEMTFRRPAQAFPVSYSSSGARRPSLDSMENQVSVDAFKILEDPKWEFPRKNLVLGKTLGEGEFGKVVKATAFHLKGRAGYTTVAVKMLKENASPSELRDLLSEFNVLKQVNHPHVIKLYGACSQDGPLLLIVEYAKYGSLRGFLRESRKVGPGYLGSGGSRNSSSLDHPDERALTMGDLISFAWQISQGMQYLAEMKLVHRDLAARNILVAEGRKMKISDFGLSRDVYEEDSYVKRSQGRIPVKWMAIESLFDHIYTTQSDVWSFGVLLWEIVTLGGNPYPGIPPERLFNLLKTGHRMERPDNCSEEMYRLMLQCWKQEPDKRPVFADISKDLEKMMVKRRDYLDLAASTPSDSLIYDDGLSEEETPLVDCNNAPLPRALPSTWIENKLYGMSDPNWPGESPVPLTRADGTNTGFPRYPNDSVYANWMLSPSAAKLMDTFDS

In the case of `Cc1cccc(-c2nc(Nc3ccncc3)c3ccccc3n2)n1` [NK215], the “KINOMEscan RET” value [1] is listed as 9, the “KINOMEscan TXK” value [2] is listed as 11 and the “KINOMEscan GSK3B” value [3] is listed as 0. The “KINOMEscan NEK3” value [4] was 30, the “KINOMEscan MELK” value [5] was 11 and the “KINOMEscan TESK1” value [6] was 14. For the same compound, the “KINOMEscan NEK11” value [7] was 0, the “KINOMEscan CDKL2” value [8] was 10 and the “KINOMEscan PLK2” value [9] was 0.
